Reference: ChEMBL document CHEMBL4715829, “Heterodimeric Rifampicin-Tobramycin conjugates break intrinsic resistance of Pseudomonas aeruginosa to doxycycline and chloramphenicol in vitro and in a Galleria mellonella in vivo model” (Eur J Med Chem, 2019)

How the values were obtained:
Pseudomonas aeruginosa [1] = assay: Antibacterial activity against Pseudomonas aeruginosa 264-101354 assessed as potentiation of chloramphenicol-induced antibacterial activity by measuring chloramphenicol MIC at 9.8 uM incubated for 18 hrs in presence of chloramphenicol by broth microdilution assay (reference value: 4096 ug/ml); format: functional
Pseudomonas aeruginosa [2] = assay: Antibacterial activity against Pseudomonas aeruginosa 262-101856 assessed as potentiation of chloramphenicol-induced antibacterial activity by measuring chloramphenicol MIC at 9.8 uM incubated for 18 hrs in presence of chloramphenicol by broth microdilution assay (reference value: 2048 ug/ml); format: functional
Pseudomonas aeruginosa [3] = assay: Antibacterial activity against Pseudomonas aeruginosa 100036 assessed as fractional inhibitory concentration incubated for 18 hrs in presence of rifampicin by broth microdilution assay; format: functional
Pseudomonas aeruginosa [4] = assay: Antibacterial activity against Pseudomonas aeruginosa 259-96918 assessed as fractional inhibitory concentration incubated for 18 hrs in presence of minocycline by broth microdilution assay; format: functional
Pseudomonas aeruginosa [5] = assay: Antibacterial activity against Pseudomonas aeruginosa 91433 assessed as fractional inhibitory concentration incubated for 18 hrs in presence of tigecycline by broth microdilution assay; format: functional
Pseudomonas aeruginosa [6] = assay: Antibacterial activity against Pseudomonas aeruginosa 91433 assessed as fractional inhibitory concentration incubated for 18 hrs in presence of minocycline by broth microdilution assay; format: functional
Pseudomonas aeruginosa [7] = assay: Antibacterial activity against Pseudomonas aeruginosa 100036 assessed as fractional inhibitory concentration index incubated for 18 hrs in presence of rifampicin by broth microdilution assay; format: functional
Pseudomonas aeruginosa [8] = assay: Antibacterial activity against Pseudomonas aeruginosa 91433 assessed as fractional inhibitory concentration index incubated for 18 hrs in presence of tigecycline by broth microdilution assay; format: functional
Pseudomonas aeruginosa [9] = assay: Antibacterial activity against Pseudomonas aeruginosa 260-97103 infected in Galleria mellonella larvae assessed as survival of larvae treated at 3 hrs post-infection in presence of doxycycline and measured every 6 hrs for 36 hrs; format: functional, organism-based; conditions: dose 75-100 mg/kg
Pseudomonas aeruginosa [10] = assay: Potentiation of chloramphenicol-induced antibacterial activity against Pseudomonas aeruginosa 264-101354 assessed as fold change in chloramphenicol MIC at 9.8 uM incubated for 18 hrs in presence of chloramphenicol by broth microdilution assay relative to control; format: functional
Pseudomonas aeruginosa [11] = assay: Potentiation of chloramphenicol-induced antibacterial activity against Pseudomonas aeruginosa 101243 assessed as fold change in chloramphenicol MIC at 9.8 uM incubated for 18 hrs in presence of chloramphenicol by broth microdilution assay relative to control; format: functional
Pseudomonas aeruginosa [12] = assay: Potentiation of chloramphenicol-induced antibacterial activity against Pseudomonas aeruginosa 91433 assessed as fold change in chloramphenicol MIC at 9.8 uM incubated for 18 hrs in presence of chloramphenicol by broth microdilution assay relative to control; format: functional
Pseudomonas aeruginosa [13] = assay: Potentiation of chloramphenicol-induced bactericidal activity against Pseudomonas aeruginosa PAO1 assessed as reduction in bacterial colonies incubated for >= 24 hrs in LB medium in presence of chloramphenicol followed by plating on agar plate and measured after 20 hrs by time-kill assay; format: functional, organism-based; conditions: dose 4.9-9.8 µM, time hrs >=44
Acinetobacter baumannii [14] = assay: Potentiation of doxycycline-induced antibacterial activity against Acinetobacter baumannii ATCC 17978 assessed as fold change in doxycycline MIC at 9.8 uM incubated for 18 hrs in presence of doxycycline by broth microdilution assay relative to control; format: functional
Klebsiella pneumoniae = assay: Potentiation of doxycycline-induced antibacterial activity against Klebsiella pneumoniae ATCC 16381 assessed as fold change in doxycycline MIC at 9.8 uM incubated for 18 hrs in presence of doxycycline by broth microdilution assay relative to control; format: functional
Acinetobacter baumannii [15] = assay: Potentiation of chloramphenicol-induced antibacterial activity against Acinetobacter baumannii ATCC 17978 assessed as fold change in chloramphenicol MIC at 9.8 uM incubated for 18 hrs in presence of chloramphenicol by broth microdilution assay relative to control; format: functional
Pseudomonas aeruginosa [16] = assay: Antibacterial activity against Pseudomonas aeruginosa 259-96918 assessed as reduction in bacterial growth by measuring chloramphenicol MIC at 8 ug/ml incubated for 18 hrs in presence of chloramphenicol by broth microdilution assay (reference value: 1024 ug/ml); format: functional; conditions: dose 8 µg/ml
Pseudomonas aeruginosa [17] = assay: Antibacterial activity against Pseudomonas aeruginosa 259-96918 assessed as fractional inhibitory concentration incubated for 18 hrs in presence of doxycycline by broth microdilution assay; format: functional
Pseudomonas aeruginosa [18] = assay: Antibacterial activity against Pseudomonas aeruginosa 260-97103 assessed as fractional inhibitory concentration incubated for 18 hrs in presence of chloramphenicol by broth microdilution assay; format: functional
Pseudomonas aeruginosa [19] = assay: Antibacterial activity against Pseudomonas aeruginosa 91433 assessed as fractional inhibitory concentration incubated for 18 hrs in presence of doxycycline by broth microdilution assay; format: functional
Pseudomonas aeruginosa [20] = assay: Antibacterial activity against Pseudomonas aeruginosa 100036 assessed as reduction in bacterial growth by measuring chloramphenicol MIC at 4 ug/ml incubated for 18 hrs in presence of chloramphenicol by broth microdilution assay (reference value: 1024 ug/ml); format: functional; conditions: dose 4 µg/ml
Pseudomonas aeruginosa [21] = assay: Antibacterial activity against Pseudomonas aeruginosa 100036 assessed as potentiation of chloramphenicol-induced antibacterial activity by measuring chloramphenicol MIC at 7.6 uM incubated for 18 hrs in presence of chloramphenicol by broth microdilution assay (reference value: 1024 ug/ml); format: functional
Pseudomonas aeruginosa [22] = assay: Antibacterial activity against Pseudomonas aeruginosa 262-101856 assessed as potentiation of doxycycline-induced antibacterial activity by measuring doxycycline MIC at 7.6 uM incubated for 18 hrs in presence of doxycycline by broth microdilution assay (reference value: 1024 ug/ml); format: functional
Pseudomonas aeruginosa [23] = assay: Antibacterial activity against Pseudomonas aeruginosa 262-101856 assessed as potentiation of chloramphenicol-induced antibacterial activity by measuring chloramphenicol MIC at 7.6 uM incubated for 18 hrs in presence of chloramphenicol by broth microdilution assay (reference value: 2048 ug/ml); format: functional
Pseudomonas aeruginosa [24] = assay: Antibacterial activity against Pseudomonas aeruginosa 260-97103 assessed as potentiation of chloramphenicol-induced antibacterial activity by measuring chloramphenicol MIC at 7.6 uM incubated for 18 hrs in presence of chloramphenicol by broth microdilution assay (reference value: 128 ug/ml); format: functional
Pseudomonas aeruginosa [25] = assay: Antibacterial activity against Pseudomonas aeruginosa 91433 assessed as potentiation of chloramphenicol-induced antibacterial activity by measuring chloramphenicol MIC at 7.6 uM incubated for 18 hrs in presence of chloramphenicol by broth microdilution assay (reference value: 8 ug/ml); format: functional
Pseudomonas aeruginosa [26] = assay: Potentiation of doxycycline-induced antibacterial activity against Pseudomonas aeruginosa 101243 assessed as fold change in doxycycline MIC at 7.6 uM incubated for 18 hrs in presence of doxycycline by broth microdilution assay relative to control; format: functional
Pseudomonas aeruginosa [27] = assay: Potentiation of chloramphenicol-induced antibacterial activity against Pseudomonas aeruginosa 100036 assessed as fold change in chloramphenicol MIC at 7.6 uM incubated for 18 hrs in presence of chloramphenicol by broth microdilution assay relative to control; format: functional
Pseudomonas aeruginosa [28] = assay: Potentiation of chloramphenicol-induced antibacterial activity against Pseudomonas aeruginosa 101885 assessed as fold change in chloramphenicol MIC at 7.6 uM incubated for 18 hrs in presence of chloramphenicol by broth microdilution assay relative to control; format: functional
Pseudomonas aeruginosa [29] = assay: Potentiation of chloramphenicol-induced antibacterial activity against Pseudomonas aeruginosa 260-97103 assessed as fold change in chloramphenicol MIC at 7.6 uM incubated for 18 hrs in presence of chloramphenicol by broth microdilution assay relative to control; format: functional

With `CO[C@H]1/C=C/O[C@@]2(C)Oc3c(C)c(O)c4c(O)c(c(/C=N/N5CCN(Cc6cn(CCCCCCO[C@@H]7[C@@H](O[C@H]8O[C@H](CO)[C@@H](O)[C@H](N)[C@H]8O)[C@H](N)C[C@H](N)[C@H]7O[C@H]7O[C@H](CN)[C@@H](O)C[C@H]7N)nn6)CC5)c(O)c4c3C2=O)NC(=O)/C(C)=C\C=C\[C@H](C)[C@H](O)[C@@H](C)[C@@H](O)[C@@H](C)[C@H](OC(C)=O)[C@@H]1C.Cl.Cl.Cl.Cl.Cl` the MIC (Pseudomonas aeruginosa [1]) was 128 µg/mL, the MIC (Pseudomonas aeruginosa [2]) was 128 µg/mL and the FIC (Pseudomonas aeruginosa [3]) was 0.063. The FIC (Pseudomonas aeruginosa [4]) was <0.125, the FIC (Pseudomonas aeruginosa [5]) was <0.125 and the FIC (Pseudomonas aeruginosa [6]) was <0.125. For the same compound, the “fractional inhibitory concentration index (FICI)” value (Pseudomonas aeruginosa [7]) was 0.31, the “fractional inhibitory concentration index (FICI)” value (Pseudomonas aeruginosa [8]) was 1.13 and the Activity (Pseudomonas aeruginosa [9]) was “Dose-dependent effect”. The “fold change (FC)” value (Pseudomonas aeruginosa [10]) was 4, the “fold change (FC)” value (Pseudomonas aeruginosa [11]) was 4 and the “fold change (FC)” value (Pseudomonas aeruginosa [12]) was 4. For the same compound, the Activity (Pseudomonas aeruginosa [13]) was “Dose-dependent effect”, the “fold change (FC)” value (Acinetobacter baumannii [14]) was 0 and the “fold change (FC)” value (Klebsiella pneumoniae) was 0. For the same compound, the “fold change (FC)” value (Acinetobacter baumannii [15]) was 0.

With `NC[C@H]1O[C@H](O[C@H]2[C@H](O)[C@@H](O[C@H]3O[C@H](CO)[C@@H](O)[C@H](N)[C@H]3O)[C@H](N)C[C@@H]2N)[C@H](N)C[C@@H]1O` [TOBRAMYCIN] the MIC (Pseudomonas aeruginosa [16]) was 1020 µg/mL, the FIC (Pseudomonas aeruginosa [17]) was 0.125 and the FIC (Pseudomonas aeruginosa [18]) was 0.5. The FIC (Pseudomonas aeruginosa [19]) was 0.5.

Work on `CO[C@H]1/C=C/O[C@@]2(C)Oc3c(C)c(O)c4c(O)c(c(/C=N/N5CCN(C)CC5)c(O)c4c3C2=O)NC(=O)/C(C)=C\C=C\[C@H](C)[C@H](O)[C@@H](C)[C@@H](O)[C@@H](C)[C@H](OC(C)=O)[C@@H]1C` [RIFAMPIN] yielded an MIC (Pseudomonas aeruginosa [20]) of 1020 µg/mL.

Compound `CO[C@H]1/C=C/O[C@@]2(C)Oc3c(C)c(O)c4c(O)c(c(/C=N/N5CCN(Cc6cn(CCCCCCCCCCCCO[C@@H]7[C@@H](O[C@H]8O[C@H](CO)[C@@H](O)[C@H](N)[C@H]8O)[C@H](N)C[C@H](N)[C@H]7O[C@H]7O[C@H](CN)[C@@H](O)C[C@H]7N)nn6)CC5)c(O)c4c3C2=O)NC(=O)/C(C)=C\C=C\[C@H](C)[C@H](O)[C@@H](C)[C@@H](O)[C@@H](C)[C@H](OC(C)=O)[C@@H]1C.O=C(O)C(F)(F)F.O=C(O)C(F)(F)F.O=C(O)C(F)(F)F.O=C(O)C(F)(F)F.O=C(O)C(F)(F)F` has an MIC (Pseudomonas aeruginosa [21]) of 4 µg/mL, an MIC (Pseudomonas aeruginosa [22]) of 8 µg/mL and an MIC (Pseudomonas aeruginosa [23]) of 128 µg/mL. The MIC (Pseudomonas aeruginosa [24]) was 0.5 µg/mL, the MIC (Pseudomonas aeruginosa [25]) was 1 µg/mL and the “fold change (FC)” value (Pseudomonas aeruginosa [26]) was 4. The “fold change (FC)” value (Pseudomonas aeruginosa [27]) was 4, the “fold change (FC)” value (Pseudomonas aeruginosa [28]) was 4 and the “fold change (FC)” value (Pseudomonas aeruginosa [29]) was 4.
